In ChEMBL document CHEMBL3877277, “Design, synthesis and biological evaluation of new phthalimide and saccharin derivatives with alicyclic amines targeting cholinesterases, beta-secretase and amyloid beta aggregation” (Eur J Med Chem, 2017):
Activity calls are given as the source filed them. The rule behind the calls is not given here.

Assays:
[1] = molecular target: Acetylcholinesterase (Electrophorus electricus) (UniProt O42275); assay: Non-competitive inhibition of Electric eel AChE at 0.75 to 3.5 uM using varying levels of acetylthiocholine iodide as substrate preincubated for 5 mins followed by substrate addition measured after 5 mins by Lineweaver-Burk plot analysis
[2] = molecular target: Acetylcholinesterase (Electrophorus electricus, UniProt O42275)
Description: Inhibition of Electric eel AChE using acetylthiocholine iodide as substrate preincubated for 5 mins followed by substrate addition measured after 5 mins by Ellman's method

[3] = molecular target: Acetylcholinesterase (Electrophorus electricus) (UniProt O42275); assay: Non-competitive inhibition of Electric eel AChE at 0.75 to 3.5 uM using varying levels of acetylthiocholine iodide as substrate preincubated for 5 mins followed by substrate addition measured after 5 mins by Cornish-Bowden plot analysis
[4] = in vitro; settings: PAMPA
[5] = molecular target: Cholinesterase (Equus caballus) (UniProt P81908); assay: Inhibition of equine serum BuChE at 10 uM using butyrylthiocholine iodide as substrate preincubated for 5 mins followed by substrate addition measured after 5 mins by Ellman's method relative to control
[6] = molecular target: Acetylcholinesterase (Electrophorus electricus) (UniProt O42275); assay: Inhibition of Electric eel AChE at 10 uM using acetylthiocholine iodide as substrate preincubated for 5 mins followed by substrate addition measured after 5 mins by Ellman's method relative to control
[7] = molecular target: T1, Acetylcholinesterase (Homo sapiens, UniProt P22303); assay: Inhibition of recombinant human AChE using acetylthiocholine iodide as substrate preincubated for 5 mins followed by substrate addition measured after 5 mins by Ellman's method
[8] = molecular target: Amyloid-beta precursor protein (Homo sapiens) (UniProt P05067); assay: Inhibition of recombinant human HFIP-pretreated amyloid beta (1 to 42) self-induced aggregation at 10 uM after 24 hrs by thioflavin T-based fluorometric assay relative to control
[9] = molecular target: T1, Acetylcholinesterase; assay: Inhibition of recombinant human AChE using acetylthiocholine as substrate by Ellman's method
[10] = PAMPA, 6 h, 100 µM

Chain of Acetylcholinesterase (Electrophorus electricus, UniProt O42275) (O42275 whole entry): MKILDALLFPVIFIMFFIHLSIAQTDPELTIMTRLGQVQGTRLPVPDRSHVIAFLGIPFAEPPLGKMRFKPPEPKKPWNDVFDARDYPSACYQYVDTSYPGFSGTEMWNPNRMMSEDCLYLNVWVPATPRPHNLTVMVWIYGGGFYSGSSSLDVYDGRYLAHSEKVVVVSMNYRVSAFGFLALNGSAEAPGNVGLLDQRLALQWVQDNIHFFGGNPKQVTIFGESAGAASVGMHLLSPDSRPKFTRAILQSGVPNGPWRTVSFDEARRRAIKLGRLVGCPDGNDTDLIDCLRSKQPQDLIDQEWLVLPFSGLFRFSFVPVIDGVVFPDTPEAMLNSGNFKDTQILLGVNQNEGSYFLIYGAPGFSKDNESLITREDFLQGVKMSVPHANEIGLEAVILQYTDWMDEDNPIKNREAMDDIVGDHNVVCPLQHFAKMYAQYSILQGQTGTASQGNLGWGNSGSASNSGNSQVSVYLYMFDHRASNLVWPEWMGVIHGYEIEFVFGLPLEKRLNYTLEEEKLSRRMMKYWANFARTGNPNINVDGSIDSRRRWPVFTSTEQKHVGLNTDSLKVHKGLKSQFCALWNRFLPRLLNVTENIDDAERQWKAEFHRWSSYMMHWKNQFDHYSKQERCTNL
Chain of Cholinesterase (Equus caballus) (P81908 whole entry): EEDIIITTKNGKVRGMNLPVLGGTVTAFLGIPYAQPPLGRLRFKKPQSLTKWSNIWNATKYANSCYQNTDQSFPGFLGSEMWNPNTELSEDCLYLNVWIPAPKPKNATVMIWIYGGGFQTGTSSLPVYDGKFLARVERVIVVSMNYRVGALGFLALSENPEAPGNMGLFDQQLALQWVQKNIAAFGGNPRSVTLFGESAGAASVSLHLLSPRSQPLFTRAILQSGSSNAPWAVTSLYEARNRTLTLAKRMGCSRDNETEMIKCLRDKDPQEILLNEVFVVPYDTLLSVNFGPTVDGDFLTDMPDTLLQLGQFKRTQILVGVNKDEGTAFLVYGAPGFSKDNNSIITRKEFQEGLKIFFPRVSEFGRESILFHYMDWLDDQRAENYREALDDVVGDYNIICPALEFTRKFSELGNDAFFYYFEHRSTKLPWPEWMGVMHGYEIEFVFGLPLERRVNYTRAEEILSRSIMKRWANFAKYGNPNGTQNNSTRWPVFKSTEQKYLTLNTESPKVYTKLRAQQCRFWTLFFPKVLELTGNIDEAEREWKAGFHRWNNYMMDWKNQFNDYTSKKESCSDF
Chain of Acetylcholinesterase (Electrophorus electricus) (O42275 24-633 limits assumed): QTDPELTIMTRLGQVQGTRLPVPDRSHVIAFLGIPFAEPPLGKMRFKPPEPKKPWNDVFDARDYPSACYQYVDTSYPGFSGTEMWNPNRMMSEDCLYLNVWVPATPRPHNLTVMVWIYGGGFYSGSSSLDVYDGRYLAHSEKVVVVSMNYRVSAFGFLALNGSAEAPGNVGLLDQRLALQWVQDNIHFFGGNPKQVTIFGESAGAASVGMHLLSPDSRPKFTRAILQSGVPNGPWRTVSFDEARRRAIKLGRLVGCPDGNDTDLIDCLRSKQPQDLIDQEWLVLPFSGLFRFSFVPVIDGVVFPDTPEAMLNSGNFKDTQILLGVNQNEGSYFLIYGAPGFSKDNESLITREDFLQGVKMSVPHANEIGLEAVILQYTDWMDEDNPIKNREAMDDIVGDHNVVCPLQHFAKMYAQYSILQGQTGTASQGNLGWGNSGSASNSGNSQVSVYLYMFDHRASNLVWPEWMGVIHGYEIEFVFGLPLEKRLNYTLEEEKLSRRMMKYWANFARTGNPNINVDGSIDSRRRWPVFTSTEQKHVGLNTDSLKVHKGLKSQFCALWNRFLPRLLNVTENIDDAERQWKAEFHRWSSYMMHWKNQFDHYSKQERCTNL
T1 sequence (P22303 whole entry): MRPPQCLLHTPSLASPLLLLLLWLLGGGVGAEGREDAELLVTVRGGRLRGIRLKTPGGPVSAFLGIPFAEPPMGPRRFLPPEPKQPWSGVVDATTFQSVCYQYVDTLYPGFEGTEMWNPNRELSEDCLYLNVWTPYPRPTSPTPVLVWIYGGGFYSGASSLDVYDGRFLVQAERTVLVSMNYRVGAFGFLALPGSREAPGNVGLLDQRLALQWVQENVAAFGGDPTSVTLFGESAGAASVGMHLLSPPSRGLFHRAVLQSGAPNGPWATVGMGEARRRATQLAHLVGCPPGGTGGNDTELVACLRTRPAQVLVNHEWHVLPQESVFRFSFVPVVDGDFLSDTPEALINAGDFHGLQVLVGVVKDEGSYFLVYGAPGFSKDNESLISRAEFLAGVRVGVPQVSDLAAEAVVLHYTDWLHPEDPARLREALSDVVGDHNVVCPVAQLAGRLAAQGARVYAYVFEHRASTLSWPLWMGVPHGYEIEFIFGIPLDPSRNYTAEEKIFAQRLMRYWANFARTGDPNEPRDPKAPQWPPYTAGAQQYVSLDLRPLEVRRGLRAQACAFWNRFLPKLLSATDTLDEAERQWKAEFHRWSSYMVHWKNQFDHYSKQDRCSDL
Chain of Amyloid-beta precursor protein (Homo sapiens) (P05067 whole entry): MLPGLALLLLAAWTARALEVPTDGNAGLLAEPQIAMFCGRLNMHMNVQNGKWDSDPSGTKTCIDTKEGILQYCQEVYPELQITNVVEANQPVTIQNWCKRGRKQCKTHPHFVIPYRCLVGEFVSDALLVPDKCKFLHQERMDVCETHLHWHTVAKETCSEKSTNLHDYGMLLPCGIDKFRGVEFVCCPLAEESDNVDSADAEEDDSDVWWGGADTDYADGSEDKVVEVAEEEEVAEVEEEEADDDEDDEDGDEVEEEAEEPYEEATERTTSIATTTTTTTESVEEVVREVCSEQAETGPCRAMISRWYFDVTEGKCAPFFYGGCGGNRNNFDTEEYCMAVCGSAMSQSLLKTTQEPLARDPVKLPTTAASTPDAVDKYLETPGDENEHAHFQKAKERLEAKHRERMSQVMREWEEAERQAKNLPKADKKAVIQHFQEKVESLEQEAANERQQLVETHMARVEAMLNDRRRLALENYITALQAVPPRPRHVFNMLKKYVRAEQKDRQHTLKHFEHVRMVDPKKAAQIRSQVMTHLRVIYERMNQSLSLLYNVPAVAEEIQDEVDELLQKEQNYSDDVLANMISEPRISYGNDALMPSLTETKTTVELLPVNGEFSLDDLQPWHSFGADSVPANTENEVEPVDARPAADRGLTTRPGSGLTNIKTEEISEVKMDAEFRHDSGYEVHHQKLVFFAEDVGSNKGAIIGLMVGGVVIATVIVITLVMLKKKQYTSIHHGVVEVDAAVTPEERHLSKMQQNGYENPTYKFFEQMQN

SMILES	IC50 [2] [µM]	inhibition [5] [%]	inhibition [6] [%]	also measured
O=C1c2ccccc2S(=O)(=O)N1CCN1CCN(Cc2ccccc2)CC1	0.83	22.1	> 50	inhibition [1]: Active; inhibition [3]: Active; Papp at 6 h, 100 µM [4]: 37.5 nm/s
O=C1c2ccccc2C(=O)N1CCN1CCCC(NCc2ccccc2F)C1 (stereo unspecified)		< 10	15.3	
O=C1c2ccccc2S(=O)(=O)N1CCN1CCCC(NCc2ccccc2F)C1 (stereo unspecified)		< 10	< 10	
O=C1c2ccccc2S(=O)(=O)N1CCN1CCN(Cc2cc(F)cc(F)c2)CC1	19.2	11	> 50	
O=C1c2ccccc2C(=O)N1CCN1CCN(Cc2cc(F)cc(F)c2)CC1		14.2	< 10	
O=C1c2ccccc2S(=O)(=O)N1CCCCCN1CCN(Cc2ccccc2)CC1		30.4	43.1	
O=C1c2ccccc2C(=O)N1CCNC1CCN(Cc2ccccc2)C1 (stereo unspecified)		21.4	25.7	
O=C1c2ccccc2S(=O)(=O)N1CCN1CCN(CCc2ccccc2)CC1		18.4	< 10	
O=C1c2ccccc2S(=O)(=O)N1CCCCCCN1CCN(Cc2ccccc2F)CC1	8.43	31.6	> 50	
O=C1c2ccccc2S(=O)(=O)N1CCN1CCCN(Cc2cc(F)cc(F)c2)C1		16.4	25.4	
O=C1c2ccccc2S(=O)(=O)N1CCN1CCN(Cc2cccc(F)c2)CC1	2.14	< 10	> 50	
O=C1c2ccccc2S(=O)(=O)N1CCCCN1CCN(Cc2ccccc2)CC1	3.01	41.5	> 50	Papp at 6 h, 100 µM [4]: 106 nm/s
O=C1c2ccccc2S(=O)(=O)N1CCCCCNCc1ccccc1				IC50 [7]: 0.033 µM; inhibition [8]: 22.2%
CCN(Cc1ccccc1)Cc1ccc(-c2cc3cc(OCCNC(=O)/C=C/c4cc(F)cc(F)c4)ccc3oc2=O)cc1				IC50 [9]: 0.00716 µM
O=C1c2ccccc2S(=O)(=O)N1CCCCCCN1CCN(Cc2ccccc2)CC1		41.8	41.7	
O=C1c2ccccc2C(=O)N1CCN1CCCN(Cc2ccccc2F)C1		27.8	< 10	
O=C1c2ccccc2C(=O)N1CCN1CCCC(NCc2cc(F)cc(F)c2)C1 (stereo unspecified)	6.47	20	> 50	

SMILES	IC50 [2] [µM]	inhibition [5] [%]	inhibition [6] [%]	also measured
O=C1c2ccccc2C(=O)N1CCN1CCN(CCc2ccccc2F)CC1		20.3	< 10	
O=C1c2ccccc2S(=O)(=O)N1CCCN1CCN(Cc2ccccc2)CC1		11.7	34.2	
O=C1c2ccccc2S(=O)(=O)N1CCCCN1CCN(Cc2ccccc2F)CC1	4.25	29.6	> 50	Papp at 6 h, 100 µM [4]: 110 nm/s
O=C1c2ccccc2C(=O)N1CCNC1CCCN(Cc2ccccc2)C1 (stereo unspecified)		16	< 10	
O=C1c2ccccc2S(=O)(=O)N1CCN1CCN(Cc2ccc(F)cc2)CC1	6.28	47.5	> 50	Papp at 6 h, 100 µM [4]: 36.5 nm/s
O=C1c2ccccc2C(=O)N1CCN1CCCN(Cc2cc(F)cc(F)c2)C1		< 10	< 10	
O=C1c2ccccc2C(=O)N1CCN1CCN(Cc2ccccc2F)CC1		< 10	41.8	
O=C1c2ccccc2S(=O)(=O)N1CCN1CCN(CCc2ccccc2F)CC1		11.3	< 10	
O=C1c2ccccc2S(=O)(=O)N1CCN1CCN(Cc2ccccc2F)CC1	17.8	16.1	> 50	
O=C1c2ccccc2S(=O)(=O)N1CCCCCN1CCN(Cc2ccccc2F)CC1	7.36	21.9	> 50	Papp at 6 h, 100 µM [4]: 96 nm/s
O=C1c2ccccc2S(=O)(=O)N1CCN1CCCC(NCc2cc(F)cc(F)c2)C1 (stereo unspecified)		< 10	< 10	
CCN(C)C(=O)Oc1cccc([C@H](C)N(C)C)c1 [RIVASTIGMINE]				permeability [10]: 66 nm/s
O=C1c2ccccc2S(=O)(=O)N1CCCN1CCN(Cc2ccccc2F)CC1		12	< 10	
O=C1c2ccccc2S(=O)(=O)N1CCN1CCCN(Cc2ccccc2F)C1		21.6	18.4	
O=C1c2ccccc2C(=O)N1CCNC1CCCN(Cc2cc(F)cc(F)c2)C1 (stereo unspecified)		14.2	< 10	
O=C1c2ccccc2C(=O)N1CCNC1CCCN(Cc2ccccc2F)C1 (stereo unspecified)		28.3	18.9	
